Measured values as given in patent US7943664B2, “Phosphate binding materials and their uses” (Medical Research Council, priority 2008, dated 2011).

Legend:
[1] = Langmuir isotherms, determination of affinity and capacity; type: physicochemical; details: Langmuir isotherm at pH 5, 10 mM phosphate, 0.9% NaCl, binder mass 13.4-80.4 mg
Method: The Langmuir isotherms were obtained using the same methodology as in Autissier et al. (2007), except in vitro solutions also contained 0.9% NaCl to make the assay better simulate physiological conditions. These Langmuir isotherms were generated at pH 5 and experimental conditions were similar to those in “Phosphate binding at physiological concentration” except the mass of binders was varied from 13.4-80.4 mg.
We further compared the phosphate binding abilities of FeOH Ad100, FeOH Ad100 SiO2, and lanthanum using Langmuir isotherms. The Langmuir equation relates the adsorption of molecules on a solid surface to a concentration and was adapted to determine the affinity and capacity of the above noted phosphate binders:
C=concentration of adsorbate unbound in mM
Cad/m=mmol of adsorbate bound per g binder
It was not possible to determine these values for Renagel because its low affinity required a higher concentration of phosphate than the physiologically relevant concentration (10 mM) that was tested in this experiment. Langmuir isotherms were generated at pH 5 and experimental conditions were similar to those in FIGS. 2a/b, except the mass of binders was varied from 13.4-80.4 mg.

[2] = In vitro phosphate binding at physiological concentration; type: physicochemical
Method: An exemplary assay for determining phosphate binding is reported in the example 2.1 in which equal masses of ferrihydrite (e.g. 53.6 mg), or indeed any other binder used as a comparison, and a phosphate binder of the present invention were assayed to determine the percentage of phosphate they are capable of binding under physiological conditions. In general, the mass of the materials used in the assay may be between 10 mg and 80 mg inclusive in a 20 mL assay. […]
A solution containing 10 mM phosphate, a physiologically relevant concentration, and 0.9% NaCl was adjusted to pH 3, pH 5 and finally pH 7. […] The percentage of phosphate binding was calculated according to: Phosphate binding=(1−([P]t0−[P]ti)/[P]ti)×100 […]
Iron and phosphorus contents of solutions or solids (including wet solids) were measured using a JY2000-2 ICPOES (Horiba Jobin Yvon Ltd., Stanmore, U.K.) at the iron specific wavelength of 259.940 nm, and at the phosphorus wavelengths of 177.440 and/or 214.914 nm. […] The percentage of iron in solution or solid phase was determined by the difference between the starting iron content and either the iron in the soluble phase or the iron in the solid phase depending on the assay. […]

**Q.** With O=C([O-])[O-].O=C([O-])[O-].O=C([O-])[O-].[La+3].[La+3] [Lanthanum Carbonate, Lanthanum carbonate] as the molecule, how does the “K1 (Affinity)” value [1] read?
**A.** 1.6

**Q.** What about the “K2 (Capacity)” value ([1]; unit printed for K2, not in the table) of the same molecule?
**A.** 1.0 mmol P/g binder

**Q.** What about the phosphate binding ([2]; 20 mL 10 mM phosphate, 0.9% NaCl, 54 mg (53.6 mg) binder, pH 3 for 60 min then pH 5 for 60 min, sequentially (FIG. 2a/b)) of the same molecule?
**A.** 70-85%

**Q.** And the phosphate binding ([2]; binder exposed directly to the solution at pH 5 for 1 hour, without pre-conditioning at pH 3 (FIG. 3))?
**A.** ≈ 30%
